Data reported in patent publication US20120190752A1, “EXO-S-MECAMYLAMINE METHOD, USE, AND COMPOUND FOR TREATMENT” (Targacept Inc., priority 2009, published 2012).

Test system: subjects with major depressive disorder (MDD) who were inadequate responders to citalopram
Assay: SGI-Cog (Subject Global Impression-Cognition) with Attention, Memory, Speed subscales, Phase 2b add-on trial
Assay type: in vivo, human
Parameters: SGI-Cognition Adj. Mean / SGI-Attention Adj. Mean / SGI-Memory Adj. Mean / SGI-Speed Adj. Mean / SGI-Cog TOTAL Adjusted Mean / SGI-Cog MEMORY Adjusted Mean / SGI-Cog ATTENTION Adjusted Mean / SGI-Cog SPEED OF THINKING Adjusted Mean: scale not given here
Settings: for SGI-Cog ATTENTION Adjusted Mean / SGI-Cog ATTENTION Mean Difference between TC-5214 and Placebo / SGI-Cog MEMORY Adjusted Mean / SGI-Cog MEMORY Mean Difference between TC-5214 and Placebo / SGI-Cog SPEED OF THINKING Adjusted Mean / SGI-Cog SPEED OF THINKING Mean Difference between TC-5214 and Placebo / SGI-Cog TOTAL Adjusted Mean / SGI-Cog TOTAL Mean Difference between TC-5214 and Placebo: Double Blind Week 16; for SGI-Attention Adj. Mean / SGI-Memory Adj. Mean / SGI-Speed Adj. Mean / SGI-Cognition Adj. Mean / SGI-Attention Difference vs placebo / SGI-Cognition Difference vs placebo / SGI-Memory Difference vs placebo / SGI-Speed Difference vs placebo: ITT; for SGI-Attention Adj. Mean / SGI-Memory Adj. Mean / SGI-Speed Adj. Mean / SGI-Cognition Adj. Mean: assessed at endpoint (Week 16), patient rated change from baseline; for SGI-Cognition Adj. Mean: sum of 3 items; for SGI-Attention Difference vs placebo / SGI-Cognition Difference vs placebo / SGI-Memory Difference vs placebo / SGI-Speed Difference vs placebo: endpoint (Week 16)
Experimental: In more detail, a multi-center double-blind, randomized, placebo-controlled, parallel group, flexible dose titration study of TC-5214 as adjunctive therapy in subjects with major depressive disorder (MDD) who were inadequate responders to citalopram was conducted in centers in the US and India. The study consisted of a screening period, baseline/washout period, open-label phase, double-blind phase, and a follow-up visit. Subject participation in the study could continue for up to 16 weeks of treatment. Following a washout period of up to 28 days for other antidepressants, subjects with MDD and a MADRS total score >/=28 and a Clinical Global Impression-Severity (CGI-S) score >/=4 were enrolled on Day 1 into an open-label citalopram-only phase of the study. This phase lasted 8 weeks, with citalopram (CIT) dose increased from a once-daily dose of 20 mg (Day 1 through Week 4) to 40 mg (Week 4 through Week 8). A total of 579 subjects entered the open-label citalopram phase. At Week 8, subjects who tolerated 40 mg CIT, but whose MADRS score was reduced <50% from baseline and no lower than 17, and CGI-S≧4, were considered inadequate responders. These subjects (n=270) were randomized in a double-blind fashion to receive either placebo or TC-5214-23 as add-on therapy to continued CIT. The double-blind phase of the study also lasted 8 weeks (Week 8 to Week 16). Study drug, TC-5214-23 or placebo, was started at 2 mg daily (1 mg twice per day [BID] dosing), added on to continuing CIT (40 mg PO qd). After 2 weeks of treatment, the dose of TC-5214 could be increased to 4 mg (2 mg BID) or continued unchanged, with up-titration based upon good tolerability and inadequate therapeutic response. After a further 2 weeks, the dose of TC-5214 could be increased again to 8 mg (4 mg BID) if judged appropriate by the investigator, based upon good tolerability and inadequate therapeutic response. At any time during the double-blind phase of the study, placebo or TC-5214-23 could be reduced to the previous dose level following the emergence of unacceptable adverse events (AEs). […] At this follow-up, any signs or symptoms of relapse were evaluated. If a subject was prematurely discontinued from the study between Week 8 and Week 16 for any reason, the investigator was to make every effort to perform all evaluations as per protocol, assuming the subject had reached the end of the double-blind add-on treatment phase. These evaluations were to be made as soon as possible and within 2 weeks of discontinuation. […] There was no meaningful difference in results as a function of age, gender, site, or smoking status. [table] With regard to efficacy endpoints, the following tables present efficacy used in the ITT (Intent-to-Treat) and PP (Per Protocol) populations unless otherwise specific. The primary inference was based upon Week 16 visit using the ITT population. Change from baseline was obtained by subtracting the baseline values from the individual on-treatment values. Change from Week 16 was obtained by subtracting the Week 16 values from the individual follow-up visit (Week 18/19) values. If either the baseline or Week 16 or on-treatment or follow-up value was missing, the change from baseline or Week 16 value was also set to missing. To account for missing data, the last observation carry forward (LOCF) method was used for the ITT and PP populations. Thus, the last available on-therapy observation for a subject, including the observation at premature discontinuation, was used to estimate subsequent missing data points. For efficacy, baseline data were collected at Week 8 in the double-blind augmentation phase electronic case report form pages. With regard to SGI-Cog, the endpoint was the Week 16 results for the SGI-Cog. The Week 16 SGI-Cog composite score and each scale were analyzed at Week 16 using ANOVA. […]

CNC1(C)C2CCC(C2)C1(C)C (stereo in doubt) [TC-5214, (S)—N,2,3,3-tetramethylnorbornan-2-amine]
SGI-Cog ATTENTION Adjusted Mean (ITT Population): 2.13
SGI-Cog ATTENTION Mean Difference between TC-5214 and Placebo (ITT Population): 0.72
SGI-Cog MEMORY Adjusted Mean (ITT Population): 2.23
SGI-Cog MEMORY Mean Difference between TC-5214 and Placebo (ITT Population): 0.67
SGI-Cog SPEED OF THINKING Adjusted Mean (ITT Population): 2.16
SGI-Cog SPEED OF THINKING Mean Difference between TC-5214 and Placebo (ITT Population): 0.76
SGI-Cog TOTAL Adjusted Mean (ITT Population): 6.52
SGI-Cog TOTAL Mean Difference between TC-5214 and Placebo (ITT Population): 2.15
SGI-Attention Adj. Mean: 2.13 (0.09)
SGI-Memory Adj. Mean: 2.23 (0.09)
SGI-Speed Adj. Mean: 2.16 (0.09)
SGI-Attention Adj. Mean (listed as TC-5214 + CIT): 2.13
SGI-Memory Adj. Mean (listed as TC-5214 + CIT): 2.23
SGI-Speed Adj. Mean (listed as TC-5214 + CIT): 2.16
SGI-Cognition Adj. Mean: 6.52 (0.27)
SGI-Cognition Adj. Mean (listed as TC-5214 + CIT): 6.52
SGI-Attention Difference vs placebo: −0.72 (−0.96, −0.47)
SGI-Cognition Difference vs placebo: −2.15 (−2.89, −1.41)
SGI-Memory Difference vs placebo: −0.67 (−0.93, −0.42)
SGI-Speed Difference vs placebo: −0.76 (−1.02, −0.50)
SGI-Attention Difference vs placebo (listed as TC-5214 + CIT): −0.72
SGI-Cognition Difference vs placebo (listed as TC-5214 + CIT): −2.15
SGI-Memory Difference vs placebo (listed as TC-5214 + CIT): −0.67
SGI-Speed Difference vs placebo (listed as TC-5214 + CIT): −0.76
SGI-Cog ATTENTION Adjusted Mean (PP Population): 2.03
SGI-Cog ATTENTION Mean Difference between TC-5214 and Placebo (PP Population): 0.76
SGI-Cog MEMORY Adjusted Mean (PP Population): 2.15
SGI-Cog MEMORY Mean Difference between TC-5214 and Placebo (PP Population): 0.68
SGI-Cog SPEED OF THINKING Adjusted Mean (PP Population): 2.05
SGI-Cog SPEED OF THINKING Mean Difference between TC-5214 and Placebo (PP Population): 0.81
SGI-Cog TOTAL Adjusted Mean (PP Population): 6.23
SGI-Cog TOTAL Mean Difference between TC-5214 and Placebo (PP Population): 2.25
Total SGI-Cog scores compared with placebo (Week 16, ITT and PP populations, result in words): statistically significant lower
